In ChEMBL document CHEMBL5055668 (J Med Chem, 2021):
Active and inactive are the calls of the source.

Assays:
MC-38 [1] = assay: Induction of conversion of M2-macrophages to the M1 phenotype in CM of MC38 cells treated C57BL/6 mouse BMDM cells transfected with CSF1R shRNA2 assessed as decrease in Tnf mRNA expression measured after 24 hrs by qPCR analysis; assay type: functional, cell-based
[2] = molecular target: T1, Macrophage colony-stimulating factor 1 receptor (Mus musculus) (UniProt P09581); assay: Binding affinity to CSF-1R in C57BL/6 mouse BMDM cells at 100 nM after 1 hr by SIP assay; assay type: cell-based
T1 sequence (whole entry): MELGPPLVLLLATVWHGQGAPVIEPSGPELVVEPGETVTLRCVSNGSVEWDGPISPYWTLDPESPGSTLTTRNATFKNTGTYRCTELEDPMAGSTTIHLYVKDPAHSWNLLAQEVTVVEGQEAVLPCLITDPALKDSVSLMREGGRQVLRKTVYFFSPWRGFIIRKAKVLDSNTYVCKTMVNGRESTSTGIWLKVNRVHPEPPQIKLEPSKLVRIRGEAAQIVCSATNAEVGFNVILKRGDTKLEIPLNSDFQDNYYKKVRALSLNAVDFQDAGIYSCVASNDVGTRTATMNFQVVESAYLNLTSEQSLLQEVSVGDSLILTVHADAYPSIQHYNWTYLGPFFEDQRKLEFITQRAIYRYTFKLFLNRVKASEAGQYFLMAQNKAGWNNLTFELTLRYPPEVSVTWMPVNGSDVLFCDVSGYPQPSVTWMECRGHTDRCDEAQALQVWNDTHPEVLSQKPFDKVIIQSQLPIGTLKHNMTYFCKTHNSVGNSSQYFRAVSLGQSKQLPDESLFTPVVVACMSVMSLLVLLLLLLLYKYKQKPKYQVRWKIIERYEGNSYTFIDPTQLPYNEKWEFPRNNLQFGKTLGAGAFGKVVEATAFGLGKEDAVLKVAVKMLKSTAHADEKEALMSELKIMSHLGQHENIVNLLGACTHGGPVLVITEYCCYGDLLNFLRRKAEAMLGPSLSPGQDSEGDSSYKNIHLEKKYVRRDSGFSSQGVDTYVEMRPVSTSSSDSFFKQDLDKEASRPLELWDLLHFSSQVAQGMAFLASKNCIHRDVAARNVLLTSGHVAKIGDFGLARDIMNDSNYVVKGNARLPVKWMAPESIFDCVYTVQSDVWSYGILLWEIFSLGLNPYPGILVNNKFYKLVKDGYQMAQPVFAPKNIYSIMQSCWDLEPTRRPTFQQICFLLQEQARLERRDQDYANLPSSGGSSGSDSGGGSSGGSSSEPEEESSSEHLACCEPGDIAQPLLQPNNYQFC

BMDM [3] = assay: (§1) Induction of conversion of M2-macrophages to the M1 phenotype in CM of MC38 cells treated C57BL/6 mouse BMDM cells assessed as down regulation of Arg1 mRNA expression at 30 to 100 nM preincubated with culture medium of MC38 cells for 24 hrs followed by compound addition and measured after 24 hrs by qPCR analysis; assay type: functional, cell-based; settings: dose 30-100 nM
BMDM [4] = assay: as §1, with “Retnla” for “Arg1”; assay type: functional, cell-based; settings: dose 30-100 nM
BMDM [5] = assay: as §1, with “upregulation” for “down regulation”, “Il12” for “Arg1”; assay type: functional, cell-based; settings: dose 30-100 nM
THP-1 [6] = assay: Induction of conversion of M2-macrophages to the M1 phenotype in CM of HCT116 cells treated […]-differentiated human THP-1 cells assessed as down regulation of Chil3 mRNA expression at 30 to 100 nM incubated for 24 hrs by qPCR analysis; assay type: functional, cell-based; settings: dose 30-100 nM
THP-1 [7] = assay: Induction of conversion of M2-macrophages to the M1 phenotype in CM of HCT116 cells treated […]-differentiated human THP-1 cells assessed as down regulation of Retnla mRNA expression at 30 to 100 nM incubated for 24 hrs by qPCR analysis; assay type: functional, cell-based; settings: dose 30-100 nM
THP-1 [8] = assay: Induction of conversion of M2-macrophages to the M1 phenotype in CM of HCT116 cells treated […]-differentiated human THP-1 cells assessed as down regulation of Vegf mRNA expression at 30 to 100 nM incubated for 24 hrs by qPCR analysis; assay type: functional, cell-based; settings: dose 30-100 nM
THP-1 [9] = assay: Induction of conversion of M2-macrophages to the M1 phenotype in CM of HCT116 cells treated […]-differentiated human THP-1 cells assessed as upregulation of Nos2 mRNA expression at 30 to 100 nM incubated for 24 hrs by qPCR analysis; assay type: functional, cell-based; settings: dose 30-100 nM
MC-38 [10] = assay: Antiproliferative activity against mouse MC38 cells assessed as reduction in cell viability at 10 to 100 nM incubated for 24 hrs by CCK-8 assay; assay type: functional, cell-based; settings: dose 10-100 nM
HCT-116 = assay: Antiproliferative activity against human HCT-116 cells assessed as reduction in cell viability at 10 to 100 nM incubated for 24 hrs by CCK-8 assay; assay type: functional, cell-based; settings: dose 10-100 nM
Mus musculus [11] = assay: Toxicity in C57BL/6 mouse allografted with mouse MC38 cells assessed as liver damage at 5 to 20 mg/kg, po administered every day for 2 weeks by histopathological analysis; assay type: organism-based, MC-38; settings: in vivo, 336 h, dose 5-20 mg/kg
Mus musculus [12] = assay: Toxicity in C57BL/6 mouse allografted with mouse MC38 cells assessed as lung damage at 5 to 20 mg/kg, po administered every day for 2 weeks by histopathological analysis; assay type: organism-based, MC-38; settings: in vivo, 336 h, dose 5-20 mg/kg
Mus musculus [13] = assay: Toxicity in C57BL/6 mouse allografted with mouse MC38 cells assessed as heart damage at 5 to 20 mg/kg, po administered every day for 2 weeks by histopathological analysis; assay type: organism-based, MC-38; settings: in vivo, 336 h, dose 5-20 mg/kg
MC-38 [14] = assay: Antitumor activity against mouse MC38 cells allografted in C57BL6 mouse assessed as reduction in CSF-1R phosphorylation in tumor tissue at 5 to 10 mg/kg, po administered daily for 2 weeks by Western blot analysis; assay type: functional, organism-based; settings: dose 5-10 mg/kg
MC-38 [15] = assay: Antitumor activity against mouse MC38 cells allografted in C57BL6 mouse assessed as decrease in Il10 mRNA expression at 10 to 20 mg/kg, po administered daily for 2 weeks by qPCR analysis; assay type: functional, organism-based; settings: dose 10-20 mg/kg
MC-38 [16] = assay: Antitumor activity against mouse MC38 cells allografted in C57BL6 mouse assessed as decrease in Arg1 mRNA expression at 10 to 20 mg/kg, po administered daily for 2 weeks by qPCR analysis; assay type: functional, organism-based; settings: dose 10-20 mg/kg
MC-38 [17] = assay: Antitumor activity against mouse MC38 cells allografted in C57BL6 mouse assessed as decrease in Vegf mRNA expression at 10 to 20 mg/kg, po administered daily for 2 weeks by qPCR analysis; assay type: functional, organism-based; settings: dose 10-20 mg/kg
MC-38 [18] = assay: Antitumor activity against mouse MC38 cells allografted in C57BL6 mouse assessed as decrease in chil3 mRNA expression at 10 to 20 mg/kg, po administered daily for 2 weeks by qPCR analysis; assay type: functional, organism-based; settings: dose 10-20 mg/kg
MC-38 [19] = assay: Antitumor activity against mouse MC38 cells allografted in C57BL6 mouse assessed as increase in Nos2 mRNA expression at 10 to 20 mg/kg, po administered daily for 2 weeks by qPCR analysis; assay type: functional, organism-based; settings: dose 10-20 mg/kg

Measured: Activity

Cc1[nH]c(/C=C2\C(=O)Nc3cc(NC(=O)Nc4cc(C(C)(C)C)on4)ccc32)c(C)c1NC(=O)CN1CCN(C)CC1
Non-Toxic: Mus musculus [11] | Mus musculus [12] | Mus musculus [13]
active: MC-38 [1] | [2] | BMDM [3] | BMDM [4] | BMDM [5] | THP-1 [6] | THP-1 [7] | THP-1 [8] | THP-1 [9] | MC-38 [14] | MC-38 [15] | MC-38 [16] | MC-38 [17] | MC-38 [18] | MC-38 [19]
inactive: MC-38 [10] | HCT-116
